The values below come from patent US20240209456A1, “METHODS AND COMPOSITIONS RELATED TO CELL-CYCLE RNA's” (BETH ISRAEL DEACONESS MEDICAL CENTER, priority 2021, published 2024).

The test system of experiment [1] is H2A.Z. Put plainly: ChIP-Seq with H2A.Z antibody, occupancy at TSSs. The class given is cell-based, human. Particulars: for number of TSS with comparable (2-fold) decrease in total H2A.Z occupancy: HL-60, 2 hr treatment, vs cells without treatment, 38,512 TSS compared; for occupancy levels of unmodified H2A.Z at the TSS, genome-wide / H2A.Z peak intensity ratio, PU.1 locus (DMSO = 1) / H2A.Z peak intensity ratio, c-MYC locus (DMSO = 1): HL-60, 2 hr; for occupancy levels of unmodified H2A.Z at the TSS, genome-wide: vs mock-treated (DMSO), FIG. 4C; for H2A.Z peak intensity ratio, PU.1 locus (DMSO = 1) / H2A.Z peak intensity ratio, c-MYC locus (DMSO = 1): [DMSO/DRB/ActD]. The source says:
Two transcription inhibitors, Actinomycin D (ActD; RNA Polymerase I, II and III inhibitor) and 5,6-Dichlorobenzimidazole 1-β-D-ribofuranoside (DRB; RNAPII Inhibitor), were used at concentrations sufficient to block both RNA Polymerases II and III. Cells were synchronized with a double thymidine block and released into S Phase with ActD/DRB added. The rationale behind the use of ActD and DRB is: (i) to globally assess the effect of SPEARs suppression over a short time frame; (ii) to test effects resulting from the two different pathways triggered by ActD and DRB; and (iii) to take advantage of the reversibility of DRB treatment. […] Two hours after drug treatment, cells were crosslinked and subjected to ChIP-Seq analyses. […] Relative changes were then investigated in the footprints of unmodified H2A.Z and acH2A.Z in the vicinity of TSSs that result from DRB- and ActD-induced inhibition of SPEARs. The enrichments of ChIP-Seq signals for H2A.Z and acH2A.Z around 38,512 TSS (defined in the hg38 UCSC canonical gene table) following drug treatment were then compared with their occupancy in mock-treated (DMSO) cells. […] ActD-treated cells followed this pattern with a greater than 2-fold decrease in the levels of acH2A.Z at 6,283 TSS compared to untreated samples. […] For the c-MYC and PU1 loci, respectively, the ratios of control (DMSO) to drug treated H2A.Z peak intensities were: [DMSO/DRB/ActD]^c-MYC=1/0.76/0.67 and [DMSO/DRB/ActD]^PU.1=1/0.87/0.82; and the ratios of control (DMSO) to drug treated acH2A.Z peak intensities were: [DMSO/DRB/ActD]^c-MYC=1/0.62/0.36 and [DMSO/DRB/ActD]^PU.1=1.0/0.25/0.13. […] For MYB the ratios of control (DMSO) to drug treated acH2A.Z peak intensities are: [DMSO/DRB/ActD]^MYB=0.62/0.89/1.0, which corresponds to the increases in its SPEARs levels (FIG. 10C).
Double Thymidine block (early S-phase block) was carried out as described. Briefly, HL-60 cells were grown overnight to 70-80% confluence, washed twice with 1×PBS and cultured in DMEM (10% FCS)+2.5 mM Thymidine for 18 h (first block). Thymidine was washed out with 1×PBS and cells were grown in DMEM (10% FCS). After 8 hrs cells were cultured in the presence of thymidine for 18 h (second block) and then released as described. Synchrony was monitored by flow cytometry analysis of propidium iodide-stained cells using a LSRII flow cytometer (BD Biosciences) at the Harvard Stem Cell Institute/Beth Israel Deaconess Center flow cytometry facility.
DRB and Actinomycin D treatments were carried out as described. Briefly, after release from double thymidine block, HL-60 cells were treated with 100 μM of 5,6-Dichlorobenzimidazole 1-β-D-ribofuranoside (DRB) (Sigma Aldrich) or 0.8 μM of Actinomycin D (Sigma Aldrich) as indicated at each time point.
ChIP was performed as follows. Cells were crosslinked with 1% formaldehyde for 10 min at r.t. Pellets of 1×10^6 cells were used for immunoprecipitation and lysed for 10 minutes on ice and chromatin fragmented using a Branson 250 digital sonicator. Each ChIP was performed with 4 ug of antibody, incubated overnight at 4° C. A 50/50 slurry of protein A and protein G Dynabeads was used to capture enriched chromatin, which was then washed before reverse-crosslinking and proteinase K digestion at 65° C. AMPure XP beads were used to clean up and isolate ChIP DNA for subsequent library construction. The following antibodies were used for ChIP: H2A.Z (Abcam ab4174, lot GR3176820-1), acH2A.Z (Abcam ab18262, lot GR306397-1), TIP60 antibody; and IgG (Abcam ab171870). Fold enrichment was calculated using the formula 2^(−ΔΔCt(ChIP/non-immune serum)). Primer sets used for ChIP are listed in Table 2. nRIP was performed and crosslinked nuclei were collected as follows: 1. 60×10^6 HL-60 cells were crosslinked with 1% formaldehyde (formaldehyde solution, freshly made: 50 mM HEPES-KOH; 100 mM NaCl; 1 mM EDTA; 0.5 mM EGTA; 11% formaldehyde) for 10 min at room temperature. […]

Experiment [2] concerns H2A.Z. Put plainly: Western blot of total proteins, H2A.Z. The class given is cell-based, human. Particulars: HL-60, 2 hours treatment, FIG. 10A. On the procedure:
Whole-cell lysates from approximately 0.2×10^6 cells per each sample were separated on 12% SDS-PAGE gels and transferred to a nitrocellulose membrane. Immunoblots were stained overnight at 4° C. with the following primary antibodies: H2A.Z (1:2,000; Abcam ab4174), H2A.Z acetyl (K4+K7+K11) (1:2,000; Abcam ab18262) or TIP60 (1:1000; generous gift from Bruno Amati). All secondary horseradish peroxidase (HRP)-conjugated antibodies were diluted 1:5,000 and incubated for 1 hr at room temperature with TBST/5% BSA. Immuno-reactive proteins were detected using the Pierce® ECL system (Thermo Scientific #32106).

*1 amine or outer side, *2 acyl side, *3 side chain or, on linkers, in order; H or OH if unused. Where a SMILES comes first, the peptide text is derived from it. Bridges are numbered along the chain shown (N, C = ends). Roman numbers before positions name the chains, in order. [ ]: non-standard residue; d: D form. Actinocin(9to1) = Cc1c2oc3c(C)ccc(C(=O)[*:1])c3nc-2c(C(=O)[*:2])c(N)c1=O; NMeV = CN[C@H](C(=O)O)C(C)C; Sar = CNCC(=O)O

For `Cc1c2oc3c(C)ccc(C(=O)N[C@@H]4C(=O)N[C@H](C(C)C)C(=O)N5CCC[C@H]5C(=O)N(C)CC(=O)N(C)[C@@H](C(C)C)C(=O)O[C@@H]4C)c3nc-2c(C(=O)N[C@@H]2C(=O)N[C@H](C(C)C)C(=O)N3CCC[C@H]3C(=O)N(C)CC(=O)N(C)[C@@H](C(C)C)C(=O)O[C@@H]2C)c(N)c1=O` [ActD, Actinomycin D] (I: T[dV]P[Sar][NMeV] / II: T[dV]P[Sar][NMeV]; ester I:1-I:C, II:1-II:C; linker I:N-II:N via Actinocin(9to1)), in the experiment on H2A.Z [1], the “number of TSS with comparable (2-fold) decrease in total H2A.Z occupancy” value came to 650 TSS; the “occupancy levels of unmodified H2A.Z at the TSS, genome-wide” value is “only modest changes”; the “H2A.Z peak intensity ratio, PU.1 locus (DMSO = 1)” value worked out at 0.82; the “H2A.Z peak intensity ratio, c-MYC locus (DMSO = 1)” value turned out to be 0.67. In the experiment on H2A.Z [2], the “overall global content of H2A.Z” value is on record as “not affected”.
The matching figures for `OC[C@H]1O[C@@H](n2cnc3cc(Cl)c(Cl)cc32)[C@H](O)[C@@H]1O` [DRB, 5,6-Dichlorobenzimidazole 1-β-D-ribofuranoside]: 398 TSS, “only modest changes”, 0.87, 0.76 and “not affected”.
